Measured values reported in ChEMBL document CHEMBL1201862, “PubChem BioAssay data set” (2004).
Calls of active or inactive are those of the source.

Assays:
[1] = target: Disintegrin and metalloproteinase domain-containing protein 17 (Homo sapiens, UniProt P78536); experiment: ADAM17 protease inhibitors, dose response, counter-screen for ADAM10 exosite inhibitor project, biochemical, quenched FRET substrate (AID 743253)
[2] = ADAM10 inhibitors, peptide cleavage, dose response, biochemical, QFRET (AID 743254);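 further: ADAM10 enzyme with the DM2 quenched FRET peptide as substrate; EDANS fluorescence gain as the protease cuts the substrate; inhibitor potency against ADAM10 proteolytic activity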
[3] = growth suppression of beta-catenin-knockout colon cells, dose response, cell-based, HCT116, human colon tumor (AID 1045); type: functional;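 further: HCT116 colon tumor cells with beta catenin knocked out; cells exposed to compound for 60 hours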
[4] = growth suppression of PTEN-null colon cells, dose response, cell-based, HCT116 PTEN knockout (AID 1047); type: functional;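 further: HCT116 colon tumor cells with PTEN knocked out; cells exposed to compound for 60 hours before readout; potency for loss of cell viability measured by luminescence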
[5] = M. tuberculosis H37Rv growth inhibitors, H37Rv strain (AID 1626); type: functional
[6] = HEp-2 cell cytotoxicity, dose response, cytotoxicity control for RSV inhibitor project, HTS (AID 2410); type: functional; conditions: human respiratory syncytial virus
[7] = HepG2 cell cytotoxicity, dose response, cytotoxicity control, plate reader, cherry-pick, antagonist series (AID 743416); type: functional, cell-based
[8] = A549 cell cytotoxicity, dose response, cytotoxicity control, plate reader, cherry-pick, antagonist series (AID 743412); type: functional, cell-based
[9] = inhibitors of intracellular T. cruzi replication, confirmation, NIH3T3 host cells, beta-gal luminescence (AID 2044); type: functional, cell-based;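 further: intracellular parasites grown in NIH/3T3 mouse fibroblasts as host cells; luminescent beta-galactosidase reporter signal from transgenic T. cruzi replicating inside host cells; inhibitors lower the luminescence signal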
[10] = HEK293 cell cytotoxicity, dose response, cytotoxicity control, plate reader, cherry-picked samples (AID 743446); type: functional, cell-based
[11] = cytotoxicity toward NIH3T3 fibroblasts, dose response, counter-screen, cell-based, ATP luminescence, mouse fibroblasts (AID 2010); type: functional;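 further: cells exposed to compound for about 90 hours before reading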
[12] = target: T1, Heat shock factor protein 1 (Mus musculus, UniProt P38532); experiment: HSF1 potentiators in luciferase reporter cells, confirmation, cell-based, NIH3T3, luminescence, dose retest (AID 435004); type: functional;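 further: stress induced by proteasome inhibitor MG132 added 30 min after compound; luciferase reporter driven by HSF1 response element in NIH3T3 cells; actives raise luminescence as potentiators of the MG132 stress response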
T1 sequence (P38532 whole entry): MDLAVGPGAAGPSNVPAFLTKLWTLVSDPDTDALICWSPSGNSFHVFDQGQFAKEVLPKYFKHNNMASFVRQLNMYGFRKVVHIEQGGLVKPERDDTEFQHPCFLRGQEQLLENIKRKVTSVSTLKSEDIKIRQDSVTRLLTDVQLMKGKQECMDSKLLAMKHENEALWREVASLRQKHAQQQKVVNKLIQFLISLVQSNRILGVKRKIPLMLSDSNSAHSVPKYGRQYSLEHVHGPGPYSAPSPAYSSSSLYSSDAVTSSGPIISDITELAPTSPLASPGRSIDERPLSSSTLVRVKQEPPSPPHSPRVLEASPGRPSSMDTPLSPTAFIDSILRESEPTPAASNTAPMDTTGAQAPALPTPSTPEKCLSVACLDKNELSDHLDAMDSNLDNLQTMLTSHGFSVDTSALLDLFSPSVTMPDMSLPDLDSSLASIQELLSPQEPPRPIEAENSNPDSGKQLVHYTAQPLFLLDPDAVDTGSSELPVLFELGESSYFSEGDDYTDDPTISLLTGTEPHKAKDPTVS

[13] = Luminescence Cell-Based Dose Retest to Confirm Inhibitors of Cancer Stem Cells. [Related pubchem assays (depositor defined):AID2717, AID2721]; type: functional; conditions: Homo sapiens
[14] = target: NAD-dependent protein deacylase sirtuin-5, mitochondrial (Homo sapiens, UniProt Q9NXA8); experiment: SIRT5 desuccinylase inhibitors, dose response, biochemical, fluorescence imaging, cherry-pick, set 5 (AID 720591);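 further: desuccinylation of succinyl peptide AMC substrate read as fluorescence after trypsin release; potency of inhibitors that lower fluorescence and may act on trypsin instead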
Leucine aminopeptidase = target: T2, Leucine aminopeptidase (Plasmodium falciparum 3D7, UniProt Q8IL11); experiment: P. falciparum M17LAP inhibitors, primary screen, biochemical, fluorogenic H-Leu-NHMec substrate, 1536-well (AID 1619); type: functional
T2 sequence (Q8IL11 whole entry): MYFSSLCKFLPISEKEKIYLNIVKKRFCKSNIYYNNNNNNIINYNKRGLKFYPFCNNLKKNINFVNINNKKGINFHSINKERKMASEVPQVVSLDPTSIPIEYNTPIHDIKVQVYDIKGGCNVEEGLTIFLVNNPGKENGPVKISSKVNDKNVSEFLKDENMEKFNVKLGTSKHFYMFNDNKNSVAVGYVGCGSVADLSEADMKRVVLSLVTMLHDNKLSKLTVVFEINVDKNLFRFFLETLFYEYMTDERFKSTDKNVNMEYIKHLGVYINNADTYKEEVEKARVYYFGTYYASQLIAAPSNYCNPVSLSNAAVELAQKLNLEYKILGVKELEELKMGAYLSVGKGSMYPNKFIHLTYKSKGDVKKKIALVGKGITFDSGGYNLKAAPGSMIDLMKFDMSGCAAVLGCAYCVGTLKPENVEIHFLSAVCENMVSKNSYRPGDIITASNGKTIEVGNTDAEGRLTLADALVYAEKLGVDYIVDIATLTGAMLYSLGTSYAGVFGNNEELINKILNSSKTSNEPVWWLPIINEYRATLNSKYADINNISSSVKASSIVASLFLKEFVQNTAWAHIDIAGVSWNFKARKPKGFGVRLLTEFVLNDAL

[15] = target: Induced myeloid leukemia cell differentiation protein Mcl-1 (Homo sapiens, UniProt Q07820); type: functional
[16] = target: T3, Microphthalmia-associated transcription factor (Homo sapiens, UniProt O75030); experiment: TRPM1 promoter luciferase signal decrease, dose response, MITF inhibitor project, cell-based, SK-MEL-5, cherry-picked, set 3 (AID 493073); type: functional
T3 sequence (O75030 whole entry): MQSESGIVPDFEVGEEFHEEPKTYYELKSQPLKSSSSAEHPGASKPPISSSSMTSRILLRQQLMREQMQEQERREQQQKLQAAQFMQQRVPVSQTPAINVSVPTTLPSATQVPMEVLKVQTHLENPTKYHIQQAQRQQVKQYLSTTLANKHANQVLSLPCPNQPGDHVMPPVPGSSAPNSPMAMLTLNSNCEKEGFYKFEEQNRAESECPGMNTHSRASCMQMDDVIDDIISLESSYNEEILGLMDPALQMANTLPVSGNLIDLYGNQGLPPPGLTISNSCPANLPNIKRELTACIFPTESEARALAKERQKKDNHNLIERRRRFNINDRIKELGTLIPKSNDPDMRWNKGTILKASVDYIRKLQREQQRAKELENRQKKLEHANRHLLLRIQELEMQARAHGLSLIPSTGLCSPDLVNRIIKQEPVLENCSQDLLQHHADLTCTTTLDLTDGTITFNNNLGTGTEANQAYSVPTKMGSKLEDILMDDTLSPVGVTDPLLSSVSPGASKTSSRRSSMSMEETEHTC

[17] = LGR2 antagonists, dose response, cell-based, HEK293, CRE-luciferase reporter, cherry pick, set 2 (AID 743343); type: functional;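 further: transfected cells were stimulated with diluted bursicon conditioned medium after compound addition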
[18] = MC4R antagonists, dose response, counter-screen for LGR2 antagonist project, cell-based, plate reader, cherry pick (AID 743444); type: functional;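 further: transfected HEK 293 cells stimulated with alpha-MSH peptide; potency of inhibitors of the alpha-MSH evoked signal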

Chain of Disintegrin and metalloproteinase domain-containing protein 17 (P78536 whole entry, the tested form may be a part): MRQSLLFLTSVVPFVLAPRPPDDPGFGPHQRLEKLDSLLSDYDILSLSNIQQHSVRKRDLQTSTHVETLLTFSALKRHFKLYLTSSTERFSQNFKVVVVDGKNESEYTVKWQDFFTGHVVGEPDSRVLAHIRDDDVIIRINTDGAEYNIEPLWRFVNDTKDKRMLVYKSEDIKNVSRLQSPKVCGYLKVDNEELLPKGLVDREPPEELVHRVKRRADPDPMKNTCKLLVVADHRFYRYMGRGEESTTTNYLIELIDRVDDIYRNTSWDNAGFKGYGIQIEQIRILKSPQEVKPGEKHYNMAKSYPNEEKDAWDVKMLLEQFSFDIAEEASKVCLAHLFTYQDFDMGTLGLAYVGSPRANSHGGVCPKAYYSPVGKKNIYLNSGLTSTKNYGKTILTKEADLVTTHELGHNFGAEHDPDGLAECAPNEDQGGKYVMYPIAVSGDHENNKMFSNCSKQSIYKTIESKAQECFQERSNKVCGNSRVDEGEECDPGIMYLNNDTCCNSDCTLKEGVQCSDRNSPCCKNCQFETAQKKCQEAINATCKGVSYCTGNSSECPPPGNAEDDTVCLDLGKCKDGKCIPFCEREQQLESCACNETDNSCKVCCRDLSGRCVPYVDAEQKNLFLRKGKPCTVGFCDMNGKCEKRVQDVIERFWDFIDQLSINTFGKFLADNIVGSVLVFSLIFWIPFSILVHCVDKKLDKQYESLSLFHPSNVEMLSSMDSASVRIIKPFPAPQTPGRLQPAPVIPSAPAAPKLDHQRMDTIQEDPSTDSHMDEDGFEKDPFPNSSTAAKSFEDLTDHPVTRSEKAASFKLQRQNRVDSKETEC
Chain of Induced myeloid leukemia cell differentiation protein Mcl-1 (Q07820 whole entry): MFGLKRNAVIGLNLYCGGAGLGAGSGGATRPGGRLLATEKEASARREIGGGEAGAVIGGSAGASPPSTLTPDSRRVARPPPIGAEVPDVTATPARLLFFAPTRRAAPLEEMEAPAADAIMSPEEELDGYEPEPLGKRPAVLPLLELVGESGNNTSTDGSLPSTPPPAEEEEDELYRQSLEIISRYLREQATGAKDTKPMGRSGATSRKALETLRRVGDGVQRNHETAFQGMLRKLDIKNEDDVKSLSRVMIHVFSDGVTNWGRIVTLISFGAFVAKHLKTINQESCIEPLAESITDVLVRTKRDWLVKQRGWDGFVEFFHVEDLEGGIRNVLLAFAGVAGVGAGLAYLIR
Chain of NAD-dependent protein deacylase sirtuin-5, mitochondrial (Q9NXA8 whole entry): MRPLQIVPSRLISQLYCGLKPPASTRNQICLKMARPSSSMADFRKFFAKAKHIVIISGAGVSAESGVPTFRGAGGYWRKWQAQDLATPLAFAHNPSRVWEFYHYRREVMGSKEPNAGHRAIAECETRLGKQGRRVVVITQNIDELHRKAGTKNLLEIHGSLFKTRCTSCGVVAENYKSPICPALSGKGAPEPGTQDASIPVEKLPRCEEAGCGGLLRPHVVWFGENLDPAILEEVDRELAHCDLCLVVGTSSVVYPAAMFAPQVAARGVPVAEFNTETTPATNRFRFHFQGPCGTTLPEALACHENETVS

Compound: Oc1ccc(C[C@H]2CNC(=S)N2C[C@H]2CCCN2C[C@H](Cc2ccccc2)N2C[C@H](Cc3ccc(O)cc3)N(CCc3ccccc3)C2=S)cc1
- IC50 [1]: > 69.5 µM (inactive)
- IC50 [2]: 15.1 µM (inactive)

Compound: COc1ccc(/C=C/C(=O)c2ccc(C)c([N+](=O)[O-])c2)cc1O
- EC50 [3]: 4.65 µM (active)
- EC50 [4]: 5.39 µM (active)
- IC50 [5]: > 100 µM (active)
- CC50 [6]: 15.8 µM (active)

Compound: O=C(c1ccc(CSc2nc3cc[nH]cc-3n2)cc1)N1CCN(c2cccc(Cl)c2)CC1
- AC50 [7]: 32.6 µM (active)
- AC50 [8]: 38 µM (active)
- EC50 [9]: 1.39 µM (active)
- AC50 [10]: 50.4 µM (active)
- EC50 [11]: > 60 µM (not active)

Compound: Cc1ccccc1/N=C1\SC(CC(=O)Nc2ccc3ccccc3c2)C(=O)N1Cc1ccccn1 (centres undefined)
- EC50 [12]: > 120 µM (inactive)
- IC50 [1]: > 69.5 µM (inactive)
- IC50 [2]: 12.5 µM (inactive)
- AC50 [13]: 4.16 µM (active)

Compound: CNC(=O)CSc1nnc(-c2ccco2)n1-c1cccc(C)c1
- AC50 [14]: > 30 µM (inactive)

Compound: CCOC(=O)c1ccc(NC(=O)C2C3CCC(C3)C2C(=O)O)cc1 (centres undefined)
- IC50 [5]: > 100 µM (active)
- IC50 (Leucine aminopeptidase): 20 µM (active)

Compound: COc1cc(C(=O)Nc2ccc3c(c2)C(=O)c2ccccc2C3=O)cc(OC)c1OC
- IC50 [15]: 2.77 µM (active)

Compound: COc1ccc(-n2c(SCC(=O)Nc3ccc(C(=O)O)cc3)nnc2-c2cccs2)cc1
- IC50 (Leucine aminopeptidase): 14.5 µM (active)

Compound: O=S(=O)(CC(CN1CCCCC1)N1CCCCC1)c1ccc2ccccc2c1 (centres undefined)
- AC50 [7]: 14.6 µM (active)
- EC50 [12]: 13.9 µM (active)
- AC50 [16]: 12.5 µM (active)
- AC50 [17]: 22.3 µM (active)
- AC50 [8]: 11.6 µM (active)
- EC50 [9]: 2.65 µM (active)
- AC50 [10]: 18.8 µM (active)
- EC50 [11]: > 60 µM (not active)
- AC50 [18]: 14 µM (active)
